Measured values as given in patent US11433053B2, “LSD1 inhibitor and preparation method and application thereof” (CSPC ZHONGQI PHARMACEUTICAL TECHNOLOGY (SHIJIAZHUANG) CO., …, priority 2017, dated 2022).

Tests used:
H1417 cells = assay: Cell proliferation inhibitory activity on H1417 cells (CellTiter-Glo, 10 days); type: cell-based, human; settings: for IC50: 10 days incubation; for Emax: NCI-H1417, H1417 cells, read-out: Maximum inhibition percentage (%)
Description: Experimental purposes: To test the proliferation inhibitory activities of the test compounds on H1417 cells.
Experimental materials: RPMI 1640 medium, fetal bovine serum, Promega CellTiter-Glo reagent. The H1417 cell line purchased from ATCC. Envision Multi-Label Analyzer (PerkinElmer).
Experimental method: H1417 cells were seeded in a black 384-well plate, 1000 cells per well in […] of cell suspension. The test compounds were diluted 3-fold with Epmotion to the 10th concentration i.e, the compounds were diluted from 10 mmol to […], and a double duplicate well experiment was set. 198 μL medium was added to the middle plate, according to the corresponding position, 2 μL gradient diluted compounds were added to the middle plate. The mixture was mixed evenly and transferred 20 μL per well to the cell plates. The cell plates were incubated in a carbon dioxide incubator for 10 days. 25 μL of Promega CellTiter-Glo reagent per well was added to the cell plate and the mixture was incubated for 10 minutes at room temperature to stabilize the luminescence signal. Readings were performed by PerkinElmer Envision multi-label analyzer.
Data analysis: The original data was converted to the inhibition rate by the equation (Max-Ratio)/(Max-Min)*100%, and the value of IC50 can be obtained by curve fitting with four parameters. (Model 205 in XLFIT5, iDBS)
The growth inhibitory activities of the test compounds on H1417 cells were classified as + for IC50≤100 nM; ++ for IC50>100 nM and ≤500 nM; +++ for IC50>500 nM and ≤1000 nM; the highest percentage inhibition of cell viability was classified as: […]; 90%>B≥70%; 70%>C≥50%.

human LSD1 = human LSD1 (Homo sapiens (Human), UniProt O60341); assay: Evaluation of enzyme activity: LSD1 fluorescence coupling enzyme assay (HRP/Amplex Red); type: biochemical; settings: human LSD1, histone H3(1-21)K4me2 peptide 10 μM, 30 min pre-incubation
Description: The purpose of this test is to test the in vitro inhibitory activities of the compounds against LSD1. The enzyme used in this experiment was human LSD1, and the standard substrate was histone H3(1-21)K4me2 peptide (10 μM). HCI-2509 (SP2509) was used as reference compound, and the fluorescence coupling enzyme assay was employed. The production of FAD-dependent H2O2 as a result of demethylase activity of LSD1 was measured by coupling with HRP and Amplex Red. Compounds as well as control compound HCl-2509 were tested in 10-dose IC50 mode with a 3-fold serial dilution in duplicate starting at 10 μm. All compounds were pre-incubated 30 mins with enzyme before added substrate to start reaction. Fluorescence measurement: Ex/Em=535/590 by EnVision.
The test compound's inhibitory activities against LSD11 was classified as: + for IC50≤50 nM; ++ for IC50>50 nM and ≤100 nM; +++ for IC50>100 nM and ≤500 nM, and the results are shown in Table 1.

[1] = Homo sapiens, NCI-H1417, 240 h, H1417 cells
[2] = Homo sapiens, highest percentage inhibition of cell viability

| IC50 (H1417 cells; [1]) [nM] | IC50 (human LSD1) [nM] | IC50 (H1417 cells; H1417 cells) [nM] | SMILES | Emax (H1417 cells; [2]) [%] | Maximum inhibition percentage (%) (H1417 cells; H1417 cells, highest percentage inhibition of cell viability) |
| --- | --- | --- | --- | --- | --- |
| 100 to 500 | ≤ 50 |  | CN(C)[C@H]1CC[C@@H](c2nc(C3(CN[C@@H]4C[C@H]4c4ccccc4)CC3)no2)CC1 [Example 116] | 70 to 90 |  |
| 100 to 500 | ≤ 50 |  | O=C(N[C@H]1CC[C@@H](c2nc(C3(CN[C@@H]4C[C@H]4c4ccccc4)CC3)no2)CC1)C1CC1 [Example 117] | 70 to 90 |  |
| 500 to 1000 | ≤ 50 |  | N[C@H]1CC[C@@H](c2nc(C3(CN[C@@H]4C[C@H]4c4ccccc4)CC3)no2)C1 [Example 147] | 90 to 100 |  |
|  | 50 to 100 | 500 to 1000 | O=C(O)[C@H]1C[C@H](c2nc(C3(CN[C@@H]4C[C@H]4c4ccccc4)CC3)no2)C1 [Example 149] |  | C (70%>C≥50%) |
| 500 to 1000 | 100 to 500 |  | N[C@@H](CCc1nc(C2(CN[C@@H]3C[C@H]3c3ccccc3)CC2)no1)C(=O)O [Example 153] | 90 to 100 |  |
| 100 to 500 | 50 to 100 |  | c1ccc([C@@H]2C[C@H]2NCC2(c3noc([C@H]4C[C@H]5CNC[C@H]5C4)n3)CC2)cc1 [Example 156] | 70 to 90 |  |
| 500 to 1000 | 50 to 100 |  | c1ccc([C@@H]2C[C@H]2NCC2(c3noc([C@@H]4C[C@H]5CNC[C@H]5C4)n3)CC2)cc1 [Example 157] | 70 to 90 |  |
| 500 to 1000 | ≤ 50 |  | c1ccc([C@@H]2C[C@H]2NCC2(c3noc(C4CCC5(CC4)CNC5)n3)CC2)cc1 [Example 158] | 90 to 100 |  |
| 100 to 500 | 50 to 100 |  | NC1CCN(c2nc(C3(CN[C@@H]4C[C@H]4c4ccccc4)CC3)no2)CC1 [Example 159] | 90 to 100 |  |
| 100 to 500 | ≤ 50 |  | c1ccc(C2C[C@@H]2NCC2(c3noc(C4CCc5nc[nH]c5C4)n3)CC2)cc1 (stereo partly drawn) [Example 161] | 70 to 90 |  |
| 500 to 1000 | ≤ 50 |  | c1ccc(C2C[C@@H]2NCC2(c3noc(-c4cn5c(n4)CCCC5)n3)CC2)cc1 (stereo partly drawn) [Example 162] | 90 to 100 |  |
| 100 to 500 | 100 to 500 |  | c1ccc(C2C[C@@H]2NCC2(c3noc(CC4CCNCC4)n3)CC2)cc1 (stereo partly drawn) [Example 163] | 70 to 90 |  |
| 100 to 500 | ≤ 50 |  | COC(=O)[C@H]1CC[C@H](c2nc(C3(CN[C@@H]4C[C@H]4c4ccccc4)CC3)no2)CC1 [Example 171] | 50 to 70 |  |
| 500 to 1000 | 100 to 500 |  | O=C(O)[C@H]1CC[C@@H](c2nc(C3(CN[C@H]4CC4c4ccccc4)CC3)no2)C1 (stereo partly drawn) [Example 174] | 50 to 70 |  |
| 500 to 1000 | 100 to 500 |  | O=C(O)[C@@H]1CC[C@H](c2nc(C3(CN[C@H]4CC4c4ccccc4)CC3)no2)C1 (stereo partly drawn) [Example 178] | 70 to 90 |  |
| 500 to 1000 | ≤ 50 |  | NC(=O)c1ccc(-c2nc(C3(CN[C@H]4CC4c4ccccc4)CC3)no2)cc1 (stereo partly drawn) [Example 182] | 90 to 100 |  |
| 100 to 500 | ≤ 50 |  | O=C(NC1CC1)c1ccc(-c2nc(C3(CN[C@H]4CC4c4ccccc4)CC3)no2)cc1 (stereo partly drawn) [Example 184] | 90 to 100 |  |
| 100 to 500 | ≤ 50 |  | NC1CCC(NCC2(CN[C@H]3CC3c3ccccc3)CC2)CC1 (stereo partly drawn) [Example 195] | 50 to 70 |  |
| 500 to 1000 | 100 to 500 |  | O=C(O)c1ccc(CN2CCC3(CC2)CC(c2nc(C4(CN[C@H]5CC5c5ccccc5)CC4)no2)C3)cc1 (stereo partly drawn) [Example 206] | 50 to 70 |  |
| 100 to 500 | ≤ 50 |  | O=C(C1CC1)N1CCC(c2nc(C3(CN[C@H]4CC4c4ccccc4)CC3)no2)CC1 (stereo partly drawn) [Example 208] | 70 to 90 |  |
| 100 to 500 | 50 to 100 |  | N[C@@H]1CCC[C@@H](c2nc(C3(CN[C@@H]4C[C@H]4c4ccccc4)CC3)no2)C1 [Example 214] | 70 to 90 |  |
| 500 to 1000 | ≤ 50 |  | c1ccc(C2C[C@@H]2NCC2(c3noc(C4CC5(CCNCC5)C4)n3)CC2)cc1 (stereo partly drawn) [Example 219] | 90 to 100 |  |
| 100 to 500 | 50 to 100 |  | N[C@@H]1CCC[C@H](c2nc(C3(CN[C@@H]4C[C@H]4c4ccccc4)CC3)no2)C1 [Example 220] | 70 to 90 |  |
| 100 to 500 | ≤ 50 |  | N[C@H]1CC[C@H](Cc2nc(C3(CN[C@H]4CC4c4ccccc4)CC3)no2)CC1 (stereo partly drawn) [Example 225] | 90 to 100 |  |
| ≤ 100 | ≤ 50 |  | O=C(N1CCC(c2nc(C3(CN[C@H]4CC4c4ccccc4)CC3)no2)CC1)C(F)(F)F (stereo partly drawn) [Example 226] | 90 to 100 |  |
| ≤ 100 | ≤ 50 |  | NC1CCC(c2nc(C3(CN[C@@H]4C[C@H]4c4ccccc4)CC3)no2)CC1(F)F (stereo partly drawn) [Example 244] | 70 to 90 |  |

More lines, now with the values behind:

| SMILES | IC50 (H1417 cells; [1]) [nM] | IC50 (human LSD1) [nM] | IC50 (H1417 cells; H1417 cells) [nM] | Emax (H1417 cells; [2]) [%] | Maximum inhibition percentage (%) (H1417 cells; H1417 cells, highest percentage inhibition of cell viability) |
| --- | --- | --- | --- | --- | --- |
| CC(C)Oc1ccc(-c2nc(C3(CN[C@H]4CC4c4ccccc4)CCC3)no2)cc1 (stereo partly drawn) [Example 87] | 100 to 500 | ≤ 50 |  | 50 to 70 |  |
| FC(F)(F)Oc1ccc(-c2nc(C3(CN[C@H]4CC4c4ccccc4)CCC3)no2)cc1 (stereo partly drawn) [Example 88] | 100 to 500 | ≤ 50 |  | 50 to 70 |  |
| FC(F)Oc1ccc(-c2nc(C3(CN[C@H]4CC4c4ccccc4)CCC3)no2)cc1 (stereo partly drawn) [Example 89] | 100 to 500 | ≤ 50 |  | 50 to 70 |  |
| NC(=O)c1ccc(-c2nc(C3(CN[C@H]4CC4c4ccccc4)CCC3)no2)cc1 (stereo partly drawn) [Example 95] | ≤ 100 | ≤ 50 |  | 50 to 70 |  |
| N#Cc1ccc2c(c1)CN(CC1(CN[C@H]3CC3c3ccccc3)CC1)C2 (stereo partly drawn) [Example 100] | 100 to 500 | ≤ 50 |  | 50 to 70 |  |
| c1ccc(C2C[C@@H]2NCC2(c3noc(-c4ccc5scnc5c4)n3)CCC2)cc1 (stereo partly drawn) [Example 127] | 100 to 500 | ≤ 50 |  | 50 to 70 |  |
| COc1ccc(-c2nc(C3(CN[C@H]4CC4c4ccccc4)CCC3)no2)cn1 (stereo partly drawn) [Example 129] | 100 to 500 | ≤ 50 |  | 50 to 70 |  |
| FC(F)(F)c1ccc(-c2nc(C3(CN[C@H]4CC4c4ccccc4)CCC3)no2)cc1 (stereo partly drawn) [Example 132] | 100 to 500 | ≤ 50 |  | 50 to 70 |  |
| CN(C)C(=O)c1ccc(-c2nc(C3(CN[C@H]4CC4c4ccccc4)CC3)no2)cc1 (stereo partly drawn) [Example 183] | 500 to 1000 | ≤ 50 |  | 90 to 100 |  |
| N#Cc1ccc(-c2nc(C3(CN[C@H]4CC4c4ccccc4)CCC3)no2)cc1 (stereo partly drawn) [Example 192] | 100 to 500 | ≤ 50 |  | 50 to 70 |  |
| N#Cc1ccc(-c2nc(C3(CN[C@H]4CC4c4ccccc4)CCC3)no2)c(F)c1 (stereo partly drawn) [Example 193] | 100 to 500 | ≤ 50 |  | 50 to 70 |  |
| c1ccc(C2C[C@@H]2NCC2(CN[C@@H]3CC3c3ccccc3)CC2)cc1 (stereo partly drawn) [Example 198] | 100 to 500 | ≤ 50 |  | 50 to 70 |  |
| NC1(CN[C@H]2CC2c2ccccc2)CC1 (stereo partly drawn) [Example 199] | 500 to 1000 | 50 to 100 |  | 70 to 90 |  |
| c1ccc(C2C[C@@H]2NCC2(CN3CC4CNCC4C3)CC2)cc1 (stereo partly drawn) [Example 207] | 500 to 1000 | ≤ 50 |  | 50 to 70 |  |
| C[C@@H]1CCCN1CC1(CN[C@H]2CC2c2ccccc2)CC1 (stereo partly drawn) [Example 213] | 100 to 500 | ≤ 50 |  | 50 to 70 |  |
| C[C@@H]1CN(CC2(CN[C@H]3CC3c3ccccc3)CC2)C[C@H](C)N1 (stereo partly drawn) [Example 216] | ≤ 100 | 100 to 500 |  | 90 to 100 |  |
| C[C@@H]1CN(CC2(CN[C@H]3CC3c3ccccc3)CC2)C[C@H](C)O1 (stereo partly drawn) [Example 217] | 500 to 1000 | 100 to 500 |  | 50 to 70 |  |
| O=C(O)[C@H](Cc1c[nH]c2ccccc12)NCC1(CN[C@@H]2C[C@H]2c2ccccc2)CC1 [Example 227] | ≤ 100 | 100 to 500 |  | 50 to 70 |  |
| c1ccc([C@@H]2C[C@H]2NCC2(CN3CCCNCC3)CC2)cc1 [Example 230] | 100 to 500 | 100 to 500 |  | 50 to 70 |  |
| N[C@H]1CC[C@H](c2nc(C3(CN[C@@H]4C[C@H]4c4ccccc4)CCC3)no2)CC1 [Example 233] | 100 to 500 | 100 to 500 |  | 70 to 90 |  |
